Reference: patent US12533357B2, “Treatment for acute myeloid leukemia or myelodysplastic syndrome” (UNIVERSITY HEALTH NETWORK, priority 2019, dated 2026)

Assays:
DAUDI = assay: In vitro cytotoxicity (IC50) assay, alamarBlue; type: cell-based; details: NHL B-Cell Burkitt
Description: (§1) Cells were seeded in triplicate at 10,000 per 80 uL, into 96-well plates 24 hours before compound overlay and cultured at 37° C. and 5% CO2. Compound (I) was prepared as a 10 mM stock in 100% DMSO and diluted with RPMI 1640 cell growth medium containing 10% FBS such that the final concentrations ranged from 50 pM to 15 uM. Aliquots (20 uL) from each concentration were overlaid to 80 uL of pre-seeded cells to achieve final concentrations of 10 pM to 3 uM. After 3 days, cell viability in each well was assessed by alamarBlue assay according to the manufacturer's instruction (ThermoFisher Scientific). Absorbance was read at 570 nm using a SpectraPlus microplate reader (Molecular Devices Corporation). alamarBlue absorbance values were adjusted by subtracting the average of the baseline readings from untreated cells assessed one day after cell seeding. The percentage (%) of relative inhibition of cell viability was calculated by comparing to DMSO-treated cells. IC50s were calculated using GraphPad PRISM software (GraphPad Software Inc.).

HL-60 = assay: In vitro cytotoxicity (IC50) assay, alamarBlue; type: cell-based; details: HL-60, AML M2
Description: as §1

JURKAT = assay: In vitro cytotoxicity (IC50) assay, alamarBlue; type: cell-based; details: T-ALL
Description: as §1

K-562 = assay: In vitro cytotoxicity (IC50) assay, alamarBlue; type: cell-based; details: K-562, CML
Description: as §1

KOPN-8 = assay: In vitro cytotoxicity (IC50) assay, alamarBlue; type: cell-based; details: KOPN-8, B-ALL
Description: as §1

NALM-16 = assay: In vitro cytotoxicity (IC50) assay, alamarBlue; type: cell-based; details: NALM-16, B-ALL
Description: as §1

NB4 = assay: In vitro cytotoxicity (IC50) assay, alamarBlue; type: cell-based; details: NB4, AML M3
Description: as §1

OCI-AML2 = assay: In vitro cytotoxicity (IC50) assay, alamarBlue; type: cell-based; details: OCI-AML2, AML M4
Description: as §1

OCI-AML3 = assay: In vitro cytotoxicity (IC50) assay, alamarBlue; type: cell-based; details: OCI-AML3, AML M4
Description: as §1

OCI-LY10 = assay: In vitro cytotoxicity (IC50) assay, alamarBlue; type: cell-based; details: OCI-LY10, NHL ABC-DLBCL
Description: as §1

OCI-LY18 = assay: In vitro cytotoxicity (IC50) assay, alamarBlue; type: cell-based; details: OCI-LY18, NHL GCB-DLBCL
Description: as §1

OCI-LY3 = assay: In vitro cytotoxicity (IC50) assay, alamarBlue; type: cell-based; details: OCI-LY3, NHL ABC-DLCBL
Description: as §1

OCI-LY8 = assay: In vitro cytotoxicity (IC50) assay, alamarBlue; type: cell-based; details: OCI-LY8, NHL GCB-DLBCL
Description: as §1

RAJI = assay: In vitro cytotoxicity (IC50) assay, alamarBlue; type: cell-based; details: NHL B-Cell Burkitt
Description: as §1

SU-DHL-8 = assay: In vitro cytotoxicity (IC50) assay, alamarBlue; type: cell-based; details: SU-DHL-8, NHL DLBCL
Description: as §1

TF-1 = assay: In vitro cytotoxicity (IC50) assay, alamarBlue; type: cell-based; details: TF-1, AML M6
Description: as §1

[1] = test system: MOLT-4 acute lymphoblastic leukemia xenograft; assay: MOLT-4 xenograft tumor growth in SCID mice; type: in vivo; details: for complete regressions: 21 days of dosing; for tumors with regression observed / average tumor regression: day 13, fumarate
Description: The human acute lymphoblastic leukemia cell line MOLT-4 was acquired from American Type Culture Collection (Manassas, VA, USA) and grown in RPMI medium containing 100 units/mL penicillin G sodium, 100 μg/mL streptomycin sulfate. The media was supplemented with 10% heat-inactivated fetal bovine serum, 2 mM L-glutamine, and 0.11% sodium pyruvate. The tumor cells were maintained in a humidified environment of 5% CO2 and 95% air at 37° C. Cells were verified to be free of mouse pathogens by IMPACT IV PCR analysis (IDEXX RADIL, Colombia, MO, USA) before injection.
Female SCID mice were purchased from the Ontario Cancer Institute and received and acclimated at the MaRS-TMDT Animal Resources Centre for 2 weeks prior to the start of the experiment. The mice were fed ad libitum autoclaved water and Rodent Lab Diet (Harlan Teklad LM-485) consisting of 19% crude protein, 5% crude fat, and 5% crude fiber. Mice were housed in microisolator cages and maintained in an environment with a 12-hour light cycle at 20-22° C. and 40-60% humidity. On the day of implantation, MOLT-4 cells were harvested and resuspended with serum free DMEM to a concentration of 1×10^8/mL and each mouse was injected subcutaneously with a volume of 0.1 mL containing 1×10^7 MOLT-4 cells in the right rear flank.
Animals were dosed Compound (I) via oral gavage in a volume of 10 mL/kg. The animals were dosed with a 2.25 mm×50 mm curved gavage needle affixed to a 1 mL syringe. Vincristine was dosed by IP injection once per week.
Toxicity was evaluated by body weight measurements and clinical observations. The mice were observed daily for overt signs of any adverse, treatment related side effects, and clinical signs of toxicity. Acceptable toxicity was set at a group mean body weight loss of less than 20% during the study and not more than one treatment related death in a group. Animals were monitored for body weights and tumor growth where tumor volumes were calculated using the formula: tumor volume=width^2×length/2.
The study evaluated Compound (I) fumarate administered by oral gavage for 21 days, either daily at 7.5 mg/kg or 2 days on/5 days off at 13.5 mg/kg, in comparison to the standard-of-care agent vincristine, dosed in 4 weekly intraperitoneal injections of 0.5 mg/kg, in the MOLT-4 […] xenograft model in SCID (severe combined immunodeficiency) mice. Xenografts were established by subcutaneously injecting 1×10^7 tumor cells into the right flank of female SCID mice. Treatment was initiated 9 days following implantation when tumor volumes reached a mean volume of approximately 250 mm^3.

[2] = Homo sapiens, 72 h, 3 days, read-out: Compound (I) IC50
[3] = Day 25, 2-on/5-off arm 13.5 mg/kg

COc1ccc2c(c1)[C@]1(C[C@H]1c1ccc3c(/C=C/c4ccc(CN5C[C@@H](C)O[C@@H](C)C5)cc4)n[nH]c3c1)C(=O)N2 [Compound (I), (1R,2S)-2-(3-((E)-4-(((2S,6R)-2,6-dimethylmorpholino)methyl)styryl)-1H-indazol-6-yl)-5′-methoxyspiro[cyclopropane-1,3′-indolin]-2′-one]
IC50 (DAUDI; [2]): 0.2 nM | Response to Compound (I) (DAUDI): death | Response to Compound (I) (HL-60): death | IC50 (HL-60; [2]): 8.4 nM | IC50 (JURKAT; [2]): 0.6 nM | Response to Compound (I) (JURKAT): death | Response to Compound (I) (K-562): mitotic defects + | IC50 (KOPN-8; [2]): 0.7 nM | Response to Compound (I) (KOPN-8): death | Response to Compound (I) (NALM-16): mitotic defects + | Response to Compound (I) (NB4): mitotic defects + | Response to Compound (I) (OCI-AML2): mitotic defects + | Response to Compound (I) (OCI-AML3): mitotic defects + | IC50 (OCI-LY10; [2]): 6.8 nM | Response to Compound (I) (OCI-LY10): death | Response to Compound (I) (OCI-LY18): mitotic defects + | Response to Compound (I) (OCI-LY3): mitotic defects + | Response to Compound (I) (OCI-LY8): mitotic defects + | IC50 (RAJI; [2]): 0.1 nM | Response to Compound (I) (RAJI): death | IC50 (SU-DHL-8; [2]): 12 nM | Response to Compound (I) (SU-DHL-8): death | IC50 (TF-1; [2]): 2.2 nM | Response to Compound (I) (TF-1): death | average regression [1, 3]: 96% | complete regressions [1, 3]: 6 of 8 | complete regressions ([1]; Day 25, daily dosing arm 7.5 mg/kg): 8 of 8 | overall efficacy in MOLT-4 xenograft model ([1]; SCID mice): very efficacious and potentially curative | tumors with regression observed ([1]; oral 13.5 mg/kg 2-on/5-off): 7 of 8 | average tumor regression ([1]; oral 13.5 mg/kg 2-on/5-off, p=6.5*10^-6): 28% | tumors with regression observed ([1]; oral daily 7.5 mg/kg): 7 of 8 | average tumor regression ([1]; oral daily 7.5 mg/kg, p=2.5*10^-6): 77%
